# Source: patent US7034044B2, “Conjugated aromatic compounds with a pyridine substituent” (Hoffmann-La Roche Inc., priority 2001, dated 2006)
# Counter-ions that a name gives are not always drawn.
# Target: T1, NMDA-receptor subtype 2B (Rattus norvegicus, UniProt P35439+Q00960)
# T1 construct: Membranes were prepared by homogenization of the whole brain minus cerebellum and medulla oblongata; from tissue; host or cells: rat whole brain minus cerebellum and medulla oblongata (membranes)
# Assay: 3H-Ro 25-6981 binding (displacement)
# Conditions: displacement of 5 nM 3H-Ro 25-6981 from rat brain membranes (whole brain minus cerebellum and medulla oblongata), 2 hours at 4° C., Tris-HCl 50 mM pH 7.4
# Procedure: ^3H-Ro 25-6981 binding (Ro 25-6981 is [R—(R*,S*)]-α-(4-Hydroxy-phenyl)-β-methyl-4-(phenyl-methyl)-1-piperidine propanol)
# Male Füllinsdorf albino rats weighing between 150–200 g were used. Membranes were prepared by homogenization of the whole brain minus cerebellum and medulla oblongata with a Polytron (10.000 rpm, 30 seconds), in 25 volumes of a cold Tris-HCl 50 mM, EDTA 10 mM, pH 7.1 buffer. The homogenate was centrifuged at 48,000 g for 10 minutes at 4° C. The pellet was resuspended using the Polytron in the same volume of buffer and the homogenate was incubated at 37° C. for 10 minutes. After centrifugation the pellet was homogenized in the same buffer and frozen at −80° C. for at least 16 hours but not more than 10 days. For the binding assay the homogenate was thawed at 37° C., centrifuged and the pellet was washed three times as above in a Tris-HCl 5 mM, pH 7.4 cold buffer. The final pellet was resuspended in the same buffer and used at a final concentration of […].
# ^3H-Ro 25-6981 binding experiments were performed using a Tris-HCl 50 mM, pH 7.4 buffer. For displacement experiments 5 nM of ^3H-Ro 25-6981 were used and non specific binding was measured using 10 mM of tetrahydroisoquinoline and usually it accounts for 10% of the total. The incubation time was 2 hours at 4° C. and the assay was stopped by filtration on Whatmann GF/B glass fiber filters (Unifilter-96, Packard, Zürich, Switzerland). The filters were washed 5 times with cold buffer. The radioactivity on the filter was counted on a Packard Top-count microplate scintillation counter after addition of […] of microscint 40 (Canberra Packard S. A., Zürich, Switzerland).
# The above procedure was performed to determine data for calculation of an IC50 value. The IC50 value is a concentration expressed in micromoles (μM) for a test compound at which 50% of the ligand (in this determination, ^3H-Ro 25-6981) bonded to the receptor is displaced. The binding ability of the compounds of the invention was measured in vitro using a minimum of 10 concentrations and repeated at least once. The specific binding at each concentration was then calculated as the % of the maximum specific binding (100%) obtained in the same experiment, in the absence of a test compound. Competitive displacement of ^3H-Ro 25-6981 was observed, with complete displacement of the radioligand from specific binding sites (usually about 0% of specific binding at the highest concentrations tested). An IC50 value was then calculated with all the ten datapoints (% of specific bound) by plotting the data on a semilogarithmic scale with a sigmoidal fit (Log of the molar concentration on X-axis vs. % of specific bound on the Y-axis) using Microsoft Excel fit software or Microcal Origin software. The pooled normalized values were analyzed using a non-linear regression calculation program which provide IC50 with their relative upper and lower 95% confidence limits.
# T1 sequence (Q00960 27-1482, other chains not shown): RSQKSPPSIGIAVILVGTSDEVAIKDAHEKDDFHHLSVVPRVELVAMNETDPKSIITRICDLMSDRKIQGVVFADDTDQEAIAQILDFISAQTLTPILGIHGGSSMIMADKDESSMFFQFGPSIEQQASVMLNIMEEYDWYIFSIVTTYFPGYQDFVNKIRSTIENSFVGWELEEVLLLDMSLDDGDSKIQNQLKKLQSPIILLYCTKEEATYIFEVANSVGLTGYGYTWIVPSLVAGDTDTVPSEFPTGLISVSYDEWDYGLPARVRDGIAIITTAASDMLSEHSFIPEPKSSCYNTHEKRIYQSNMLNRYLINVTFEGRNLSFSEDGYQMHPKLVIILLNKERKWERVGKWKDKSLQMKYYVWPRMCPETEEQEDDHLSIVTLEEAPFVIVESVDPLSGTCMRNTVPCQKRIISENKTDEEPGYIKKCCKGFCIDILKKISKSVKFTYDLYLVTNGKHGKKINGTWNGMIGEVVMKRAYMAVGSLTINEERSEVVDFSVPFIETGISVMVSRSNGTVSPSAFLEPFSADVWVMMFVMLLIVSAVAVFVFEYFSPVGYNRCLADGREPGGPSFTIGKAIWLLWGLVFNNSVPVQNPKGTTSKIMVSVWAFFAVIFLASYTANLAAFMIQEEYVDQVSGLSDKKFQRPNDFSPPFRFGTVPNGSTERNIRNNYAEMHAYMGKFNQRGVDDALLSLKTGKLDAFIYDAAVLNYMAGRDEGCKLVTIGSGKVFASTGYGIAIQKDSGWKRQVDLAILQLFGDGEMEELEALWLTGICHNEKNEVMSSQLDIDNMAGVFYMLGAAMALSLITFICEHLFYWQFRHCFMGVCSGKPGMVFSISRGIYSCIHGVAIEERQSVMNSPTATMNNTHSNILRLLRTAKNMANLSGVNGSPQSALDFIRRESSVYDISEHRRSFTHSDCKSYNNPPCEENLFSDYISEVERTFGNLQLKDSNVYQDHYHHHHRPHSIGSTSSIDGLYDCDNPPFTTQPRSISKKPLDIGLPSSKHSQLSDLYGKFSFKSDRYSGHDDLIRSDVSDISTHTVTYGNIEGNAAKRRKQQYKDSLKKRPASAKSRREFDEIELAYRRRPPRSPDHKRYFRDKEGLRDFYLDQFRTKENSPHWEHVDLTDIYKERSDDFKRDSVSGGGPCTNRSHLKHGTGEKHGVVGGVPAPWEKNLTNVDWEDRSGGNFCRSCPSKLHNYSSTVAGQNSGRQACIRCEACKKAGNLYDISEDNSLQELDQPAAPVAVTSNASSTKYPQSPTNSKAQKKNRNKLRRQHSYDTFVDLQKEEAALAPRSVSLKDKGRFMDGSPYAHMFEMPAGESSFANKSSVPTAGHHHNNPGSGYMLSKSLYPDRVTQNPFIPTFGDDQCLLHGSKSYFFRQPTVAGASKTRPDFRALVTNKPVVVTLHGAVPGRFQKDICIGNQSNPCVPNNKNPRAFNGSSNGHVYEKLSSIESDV
row,SMILES,IC50
1,"Cc1cc(N)nc(/C=C/c2ccccc2)c1.Cl [Example 14, trans-4-Methyl-6-styryl-pyridin-2-yl-amine hydrochloride]",10 nM
2,"CCc1cc(N)cc(C2=Cc3cc(Cl)ccc3CC2)n1.O=C(O)/C=C/C(=O)O [Example 36, 2-(7-Chloro-3,4-dihydro-naphthalen-2-yl)-6-ethyl-pyridin-4-yl-amine fumarate]",23 nM
3,"Cc1cc(C)c2c(c1)C=C(c1cc(N)ccn1)CC2.O=C(O)/C=C/C(=O)O [Example 34, 2-(5,7-Dimethyl-3,4-dihydro-naphthalen-2-yl)-pyridin-4-yl-amine fumarate]",57 nM
4,"Cl.Nc1ccnc(C2=Cc3ccccc3CC2)c1 [Example 19, 2-(3,4-Dihydro-naphthalen-2-yl)-pyridin-4-yl-amine hydrochloride]",18 nM
5,"CNc1ccnc(C2=Cc3ccccc3CC2)c1.O=C(O)/C=C/C(=O)O [Example 27, [2-(3,4-Dihydro-naphthalen-2-yl)-pyridin-4-yl]-methyl-amine fumarate]",52 nM
6,"Cl.NCc1cccc(/C=C/c2ccccc2)n1 [Example 18, trans-C-(6-Styryl-pyridin-2-yl)-methylamine hydrochloride]",80 nM
7,"Nc1ccnc(C2=Cc3cc(Cl)ccc3CC2)c1 [Example 30, 2-(7-Chloro-3,4-dihydro-naphthalen-2-yl)-pyridin-4-ylamine fumarate]",20 nM
8,"Cc1cc(N)cc(C2=Cc3cc(Cl)ccc3CC2)n1.O=C(O)/C=C/C(=O)O [Example 37, 2-(7-Chloro-3,4-dihydro-naphthalen-2-yl)-6-methyl-pyridin-4-yl-amine fumarate]",82 nM
9,"Nc1ccnc(/C=C/c2ccccc2)c1 [Example 16, trans-2-Styryl-pyridin-4-yl-amine]",40 nM
10,"Cc1cc(/C=C/c2ccccc2)cc(N)n1 [Example 13, trans-6-Methyl-4-styryl-pyridin-2-yl-amine]",30 nM

# Further lines, results first:
row,IC50,SMILES
1,32 nM,"Cc1cc(N)cc(C2=Cc3ccccc3CC2)n1.O=C(O)/C=C/C(=O)O [Example 22, 2-(3,4-Dihydro-naphthalen-2-yl)-6-methyl-pyridin-4-yl-amine fumarate]"
2,11 nM,"Cc1cnc(C2=Cc3ccccc3CC2)cc1N.O=C(O)/C=C/C(=O)O [Example 24, 2-(3,4-Dihydro-naphthalen-2-yl)-5-methyl-pyridin-4-yl-amine fumarate]"
3,38 nM,"Cl.NCc1cccc(C2=Cc3ccccc3CC2)n1 [Example 28, C-[6-(3,4-Dihydro-naphthalen-2-yl)-pyridin-2-yl]-methylamine hydrochloride]"
4,38 nM,"CCc1cc(N)cc(C2=Cc3ccccc3CC2)n1.O=C(O)/C=C/C(=O)O [Example 26, 2-(3,4-Dihydro-naphthalen-2-yl)-6-ethyl-pyridin-4-yl-amine fumarate]"

# Tested on: not given
# Assay: not given
# Conditions: not given
row,SMILES,melting point
1,Nc1ccnc(C2=Cc3ccsc3CC2)c1.O=C(O)/C=C/C(=O)O,199 to 200 °C
2,"Cc1cc(N)nc(/C=C/c2ccccc2)c1.Cl [Example 14, trans-4-Methyl-6-styryl-pyridin-2-yl-amine hydrochloride]",> 250 °C
3,"CCc1cc(N)cc(C2=Cc3cc(Cl)ccc3CC2)n1.O=C(O)/C=C/C(=O)O [Example 36, 2-(7-Chloro-3,4-dihydro-naphthalen-2-yl)-6-ethyl-pyridin-4-yl-amine fumarate]",232 to 233 °C
4,"Cc1cc(C)c2c(c1)C=C(c1cc(N)ccn1)CC2.O=C(O)/C=C/C(=O)O [Example 34, 2-(5,7-Dimethyl-3,4-dihydro-naphthalen-2-yl)-pyridin-4-yl-amine fumarate]",231 to 232 °C
5,Cc1ccc(C=Cc2cccc(N)n2)cc1.Cl,> 250 °C
6,CC1CC(c2cc(N)ccn2)=Cc2ccccc21.O=C(O)/C=C/C(=O)O (racemic),176 to 177 °C
7,"Nc1ccc(/C=C/c2ccccc2)nc1 [Example 15, trans-6-Styryl-pyridin-3-yl-amine]",159 to 160 °C
8,Cc1ccc(C)c2c1C=C(c1cc(N)ccn1)CC2.O=C(O)/C=C/C(=O)O,232 to 233 °C
9,CNc1cccc(/C=C/c2ccccc2)n1.Cl,157 to 158 °C
10,"Cl.Nc1ccnc(C2=Cc3ccccc3CC2)c1 [Example 19, 2-(3,4-Dihydro-naphthalen-2-yl)-pyridin-4-yl-amine hydrochloride]",231 to 232 °C
11,Cc1cc(N)cc(C2=Cc3ccccc3C(C)C2)n1.O=C(O)/C=C/C(=O)O (racemic),183 to 185 °C (dec.)
12,"CNc1ccnc(C2=Cc3ccccc3CC2)c1.O=C(O)/C=C/C(=O)O [Example 27, [2-(3,4-Dihydro-naphthalen-2-yl)-pyridin-4-yl]-methyl-amine fumarate]",106 to 107 °C
13,Nc1cccc(C2=Cc3ccccc3CC2)n1.O=C(O)/C=C/C(=O)O,153 to 154 °C
14,COc1ccc(C=Cc2cccc(N)n2)cc1.Cl,224 to 226 °C
15,"Cl.NCc1cccc(/C=C/c2ccccc2)n1 [Example 18, trans-C-(6-Styryl-pyridin-2-yl)-methylamine hydrochloride]",170 °C (dec.)
16,Cl.Nc1cccc(C=Cc2ccc(Cl)cc2)n1,> 250 °C
17,COc1ccc2c(c1)C=C(c1cc(N)ccn1)CC2.O=C(O)/C=C/C(=O)O,193 to 194 °C
18,"Cc1cc(N)cc(C2=Cc3cc(Cl)ccc3CC2)n1.O=C(O)/C=C/C(=O)O [Example 37, 2-(7-Chloro-3,4-dihydro-naphthalen-2-yl)-6-methyl-pyridin-4-yl-amine fumarate]",232 to 233 °C
19,COc1cccc2c1CCC(c1cc(N)ccn1)=C2.O=C(O)/C=C/C(=O)O,207 to 208 °C
20,Cl.Nc1cccc(C=Cc2cccc(C(F)(F)F)c2)n1,222 to 223 °C
21,"Nc1ccnc(/C=C/c2ccccc2)c1 [Example 16, trans-2-Styryl-pyridin-4-yl-amine]",164 to 165 °C
22,"Cc1cc(/C=C/c2ccccc2)cc(N)n1 [Example 13, trans-6-Methyl-4-styryl-pyridin-2-yl-amine]",149 to 150 °C
23,Cc1cnc(C2=Cc3ccsc3CC2)cc1N.O=C(O)/C=C/C(=O)O,218 to 219 °C

# The next lines start with the values.
row,melting point,SMILES
1,113 °C (dec.),Nc1cc(CO)nc(C2=Cc3ccccc3CC2)c1.O=C(O)/C=C/C(=O)O
2,224 to 225 °C,"Nc1cccc(C=Cc2ccc(O)cc2)n1 [Example 11, 4-[2-(6-Amino-pyridin-2-yl)-vinyl]-phenol]"
3,> 250 °C,Cl.Nc1cccc(C=Cc2ccccc2F)n1
4,202 to 203 °C,"Cc1cc(N)cc(C2=Cc3ccccc3CC2)n1.O=C(O)/C=C/C(=O)O [Example 22, 2-(3,4-Dihydro-naphthalen-2-yl)-6-methyl-pyridin-4-yl-amine fumarate]"
5,> 200 °C (dec.),"Cc1cnc(C2=Cc3ccccc3CC2)cc1N.O=C(O)/C=C/C(=O)O [Example 24, 2-(3,4-Dihydro-naphthalen-2-yl)-5-methyl-pyridin-4-yl-amine fumarate]"
6,210 to 211 °C,Cc1cnc(C2=Cc3ccccc3C(C)C2)cc1N.O=C(O)/C=C/C(=O)O (racemic)
7,> 250 °C,Cl.Nc1cccc(C=Cc2ccc(F)cc2)n1
8,142 to 143 °C,Cc1cc(N)nc(C2=Cc3ccccc3CC2)c1.O=C(O)/C=C/C(=O)O
9,203 to 204 °C,"Cl.NCc1cccc(C2=Cc3ccccc3CC2)n1 [Example 28, C-[6-(3,4-Dihydro-naphthalen-2-yl)-pyridin-2-yl]-methylamine hydrochloride]"
10,248 to 249 °C,Cl.Nc1cccc(C=Cc2cccc(Cl)c2)n1
11,> 250 °C,Cl.Nc1cccc(C=Cc2ccc(Cl)c(Cl)c2)n1
12,87 to 88 °C,"Cc1c(N)ccnc1C1=Cc2ccccc2CC1 [Example 25, 2-(3,4-Dihydro-naphthalen-2-yl)-3-methyl-pyridin-4-yl-amine]"
13,> 250 °C,Cc1cnc(C2=Cc3cc(Cl)ccc3CC2)cc1N.O=C(O)/C=C/C(=O)O
14,> 250 °C,Cl.Nc1cccc(C=Cc2cccc(F)c2)n1
15,> 230 °C (dec.),"CCc1cc(N)cc(C2=Cc3ccccc3CC2)n1.O=C(O)/C=C/C(=O)O [Example 26, 2-(3,4-Dihydro-naphthalen-2-yl)-6-ethyl-pyridin-4-yl-amine fumarate]"
